Assay results taken from US4952405A, “Method of treating M. avium infection” (Liposome Technology, Inc., priority 1988, dated 1990).
“Also recorded” adds a separate entry of the source.

What was measured:
MAC 101 (serotype 1) [1] = experiment: Efficacy against MAC infection in blood of beige mice; format: in vivo, Mycobacterium avium complex; beige mice; settings: for effect on viable MAC units in blood: 0.2 mg and 1.0 mg doses, five I.V. injections, day 7 to 22, FIGS. 2A, 2B; for effect on MAC in the blood: higher dose (1.0 mg)
Experimental: (§1) Briefly, the animals were infected by I.V. injection of MAC, then treated with control, gentamicin, or gentamicin-liposome formulations 7 days later, with a total of five intravenous injections being given over a 9-day treatment period. The level of viable MAC units (cfu's) in the blood was examined at day 7 (before treatment), day 16 (immediately after the five treatment doses) and day 22. […] For both aminoglycoside drugs, dosages of 0.2 mg and 1.0 mg drug were given.
(§2) Immune deficient "beige" mice (Young, 1986) were infected intravenously with 5×10^6 of MAC 101 (serotype 1) on day 0. After 7 days, blood samples were drawn to quantitate the organisms in the blood prior to treatment. […] On the 16th day, the treated mice were bled and the number of viable MAC units in blood was determined. A week later (day 22), the mice were bled again and sacrificed. The liver and spleen were homogenized and the viable MAC were cultured in 7H10 agar for 10 days for colony counts.

serotype 4 strain of MAC = settings: Yajko; cited from earlier work
[2] = Renal clearance / drug excretion, free vs liposomal; format: in vivo; settings: after 4 days, mice
Experimental: To examine the difference in drug clearance between free aminoglycoside and an aminoglycoside-liposome composition, free amikacin and amikacin-liposomes were administered to groups of mice, as above, and the amount of drug excreted by the animals over a several-day period was examined.

MAC 101 serotype 1 [3] = experiment: MIC against MAC 101 serotype 1 in culture; format: cell-based, Mycobacterium avium complex; settings: strain 101 serotype 1, bacterial culture
Experimental: Among the aminoglycosides, amikacin has been used for treating MAC infection due to its relatively low minimum inhibitory concentration, particularly in the case of certain MAC serotypes. […] Gentamicin would therefore not be expected to be effective in vivo since the toxic level of gentamicin is about 12 μg/ml in the blood, and therefore it is not possible to maintain patients at the inhibitory dose for sustained therapeutic periods. It would be desirable to treat M. avium infection in humans with gentamicin, however, because of the relatively low cost of the drug.

MAC 101 serotype 1 [4] = settings: cited from earlier work
MAC 101 (serotype 1) [5] = experiment: Efficacy against MAC infection in liver and spleen of beige mice; format: in vivo, Mycobacterium avium complex; beige mice; settings: for bacteriocidal effect in RES organs (liver, spleen), words: day 22, FIGS. 3A, 3B
Experimental: as §1, §2

[6] = cited from earlier work
[7] = Tolerability of higher gentamicin dose in MAC-infected mice; format: in vivo; settings: about 4 mg per 20 gm mouse
From the text: This was confirmed by attempting to further reduce MAC infection by administering higher gentamicin dose.

Q: With `NCC[C@H](O)C(=O)N[C@@H]1C[C@H](N)[C@@H](O[C@H]2O[C@H](CN)[C@@H](O)[C@H](O)[C@H]2O)[C@H](O)[C@H]1O[C@H]1O[C@H](CO)[C@@H](O)[C@H](N)[C@H]1O` [amikacin] as the compound, how does the “effect on viable MAC units in blood” value (MAC 101 (serotype 1) [1]) read?
A: largely ineffective

Q: And the “effect on viable MAC units in blood” value (MAC 101 (serotype 1) [1]; listed as free amikacin)?
A: Qualitatively similar results

Q: What about the “effect on MAC in the blood” value (MAC 101 (serotype 1) [1]) of the same compound?
A: significant inhibitory effect on MAC in the blood

Q: What about the MIC (serotype 4 strain of MAC) of the same compound?
A: 16 to 32 µg/mL

Q: What about the drug excreted ([2]; 5760 min) of the same compound?
A: about 80%

Q: What about the dose excreted at 96 h ([2]; mouse, in vivo, iv) of the same compound?
A: ~80%

Q: What about the “relative activity / MIC in MAC culture, amikacin vs gentamicin” value (MAC 101 serotype 1 [3]) of the same compound?
A: nearly an order of magnitude less than that of gentamicin

Q: What about the “minimum inhibitory concentration (MIC)” value (MAC 101 serotype 1 [4]) of the same compound?
A: 2 to 4 µg/mL

Q: Which “effect on viable MAC units in blood” value (MAC 101 (serotype 1) [1]; listed as Free gentamicin) does the source give for gentamicin here?
A: no measurable activity against MAC in the bloodstream

Q: And the “effect on viable MAC units in blood” value (MAC 101 (serotype 1) [1]; listed as free gentamicin)?
A: no appreciable inhibitory effect; also recorded: No appreciable inhibition; also recorded: largely ineffective

Q: And the “effect on MAC in the blood” value (MAC 101 (serotype 1) [1])?
A: not gentamicin

Q: What about the “effect on MAC in the spleen” value (MAC 101 (serotype 1) [5]; both doses) of the same compound?
A: moderate killing

Q: What about the “bacteriocidal effect in RES organs (liver, spleen), words” value (MAC 101 (serotype 1) [5]; listed as Free gentamicin) of the same compound?
A: only modest activity against infection in RES organs

Q: And the “bacteriocidal effect in RES organs (liver, spleen), words” value (MAC 101 (serotype 1) [5]; listed as free gentamicin)?
A: about the same degree of bacteriocidal action as free amikacin

Q: What about the “effect on MAC in the liver” value (MAC 101 (serotype 1) [5]; high dose (1.0 mg/kg as printed)) of the same compound?
A: moderate killing activity

Q: And the “effect on MAC in the liver” value (MAC 101 (serotype 1) [5]; low dose (0.2 mg/kg as printed))?
A: inhibitory effect on the growth of MAC

Q: And the “toxic level in the blood” value [6]?
A: about 12 μg/ml

Q: What about the MIC (serotype 4 strain of MAC) of the same compound?
A: 16 to 32 µg/mL

Q: What about the “relative activity / MIC in MAC culture, amikacin vs gentamicin” value (MAC 101 serotype 1 [3]) of the same compound?
A: substantially less active than free amikacin

Q: And the “tolerability / animal deaths” value [7]?
A: large percentage of animal deaths

Q: What about the “minimum inhibitory concentration (MIC)” value (MAC 101 serotype 1 [4]) of the same compound?
A: 36 µg/mL
